Test results from patent US20230240958A1, “COSMETIC COMPOSITION WITH ENHANCED COLOR STABILITY FOR RETINOIC ACID PRECURSOR” (Conopco, Inc., d/b/a UNILEVER, priority 2020, published 2023).

Assay: Color stability by LabScan XE (CIELAB L*, a*, b*, ΔE) after storage
Type: physicochemical
Conditions: Examples 3 and 4
Procedure: Generally, ΔE≤10 is acceptable, ΔE between 10 to 20 is negotiable and ΔE>20 is unacceptable. For the b* value, the values represent a blue-yellow component of an object's color, wherein a negative (−) value represents movement into the blue color space while a positive (+) value represents movement into the yellow color space. A b* value of 0 represents a true neutral gray value.
Color stability is determined through the use of LabScan XE equipment (Hunter Associates Laboratory, Inc. Reston, Va.). LabScan XE measures color data. Samples at different storage stages housed in vials or in measurement cells are loaded onto the LabScan XE measurement port. By following the measurement procedure specified in the associated instrument menu and computer software, colors (a*, b* and L*) are measured and calculated to result in a color change data (ΔE) value. b* is the scale of blue-yellow space based on the CIELAB color space model, wherein an increase in b* value indicates the increase in yellow color components, and the decrease of b* value indicates the increase of blue color components.

## CCCCCCCCCCCCCC(=O)OC(C)C [isopropyl myristate]
  color stability / ΔE over time, comparison in words: greater color stability
